In assay [1] the target is T1, glucosylceramide synthase (Homo sapiens, UniProt Q16739).
T1 construct: Microsomes were isolated from A375 human melanoma cells; endogenous in cells; host or cells: A375 human melanoma cells (microsomal fraction, 100,000 g pellet)
T1 sequence (Q16739 1-394): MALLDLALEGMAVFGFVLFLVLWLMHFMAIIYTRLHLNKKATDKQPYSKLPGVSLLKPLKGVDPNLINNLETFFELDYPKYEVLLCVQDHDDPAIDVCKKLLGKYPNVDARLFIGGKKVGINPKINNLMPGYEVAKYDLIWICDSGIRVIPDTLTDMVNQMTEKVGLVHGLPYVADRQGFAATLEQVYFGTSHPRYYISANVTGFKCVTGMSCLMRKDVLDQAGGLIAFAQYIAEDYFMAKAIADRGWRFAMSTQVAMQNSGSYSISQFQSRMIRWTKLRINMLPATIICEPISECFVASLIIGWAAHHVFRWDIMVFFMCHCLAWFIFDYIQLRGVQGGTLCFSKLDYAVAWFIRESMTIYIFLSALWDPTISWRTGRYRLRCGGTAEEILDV
Description: microsomal assay measuring conversion of ceramide to glucosylceramide by HPLC (GCS IC50). The class given is biochemical. The conditions noted are these: concentration causing 50% inhibition of glucosylceramide synthase activity. Summed up: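 Microsomal preparation assayed for glucosylceramide synthase by direct HPLC measurement of ceramide conversion to glucosylceramide. GCS IC50 is the compound concentration giving 50% inhibition of enzyme activity.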

For assay [2], the system named is GM3 expression on the cell surface, B16 mouse melanoma cells. Description: cell based phenotypic assay, cell surface GM3 by antibody mediated immunofluorescence, B16 (GM3 B16 IC50). To be noted: Mus musculus, 50% inhibition of GM3 expression on the cell surface. The method in brief:
(§1)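 Two melanoma lines, mouse B16 and human C32, were treated and surface GM3 quantified by antibody immunofluorescence for IC50. A parallel viability readout gives the concentration killing 50% of cells, with values over 10 indicating no cell death.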

Assay [3] has as its system GM3 expression on the cell surface, C32 human melanoma cells. Briefly: cell based phenotypic assay, cell surface GM3 by antibody mediated immunofluorescence, C32 (GM3 C32 IC50). The conditions noted are these: Homo sapiens, 50% inhibition of GM3 expression on the cell surface. The method in brief:
as §1

The subject of a further assay is B16 mouse melanoma cells. Briefly: cell viability in the B16 cell-based assay (Viability, B16 IC50). To be noted: Mus musculus. The method in brief:
as §1

A further assay has as its system C32 human melanoma cells. Briefly: cell viability in the C32 cell-based assay (Viability, C32 IC50). To be noted: Homo sapiens, concentration causing 50% cell death, values greater than 10 represent a lack of cell death. The method in brief:
as §1

Where [4] appears, read: read-out: GM3 B16 IC50, B16 mouse melanoma cells.
The mark [5] stands for this setting: read-out: GM3 C32 IC50, C32 human melanoma cells.
Where [6] appears, read: B16, read-out: Viability, B16 IC50.
The mark [7] stands for this setting: C32, read-out: Viability, C32 IC50, C32 cells.
The mark [8] stands for this setting: B16 mouse melanoma cells, read-out: GM3 B16 IC50.
Where [9] appears, read: C32 human melanoma cells, read-out: GM3 C32 IC50.
Where [10] appears, read: B16, B16 cells, concentration causing 50% cell death, values greater than 10 represent a lack of cell death, read-out: Viability, B16 IC50.
The mark [11] stands for this setting: C32, C32 cells, read-out: Viability, C32 IC50.

SMILES strings stand for the structures. Where two headings read alike, the source gives them in different places.

Data on 17 compounds can be found in patent publication US12060349B2, “Glucosylceramide synthase inhibitors” (Genzyme Corporation, priority 2012, dated 2024).

With `COCCOc1ccc(-c2ccc(C(C)(C)NC(=O)OC3CN4CCC3CC4)cc2)cc1` (stereo not shown) [Example 155, Quinuclidin-3-yl (2-(4′-(2-methoxyethoxy)-[1,1′-biphenyl]-4-yl)propan-2-yl)carbamate], the IC50 in assay [1] stood at 0.00348 µM; in assay [2] (setting [4]), 0.0386 µM; in assay [3] (setting [5]), 0.000657 µM; in the assay on B16 mouse melanoma cells (setting [6]) it was 1 µM; with C32 human melanoma cells (setting [7]) it was 0.215 µM.
For the compound `COCCOc1ccc(-c2ccc(C(C)(C)NC(=O)N[C@@]3(C)CN4CCC3CC4)cc2)cc1` [Example 157, (R)-1-(2-(4′-(2-Methoxyethoxy)-[1,1′-biphenyl]-4-yl)propan-2-yl)-3-(3-methylquinuclidin-3-yl)urea], the IC50 is 0.228 µM in assay [1]; 0.538 µM in assay [2] (setting [8]); 0.042 µM in assay [3] (setting [9]); 3.16 µM in the assay on B16 mouse melanoma cells (setting [10]); 3.16 µM in the assay with C32 human melanoma cells (setting [11]).
In the case of `COCCOc1ccc(-c2ccc(C(C)(C)NC(=O)N[C@]3(C)CN4CCC3CC4)cc2)cc1` [Example 158, (S)-1-(2-(4′-(2-Methoxyethoxy)-[1,1′-biphenyl]-4-yl)propan-2-yl)-3-(3-methylquinuclidin-3-yl)urea], the IC50 in assay [1] was determined as 0.00285 µM; in assay [2] (setting [8]), 0.00762 µM; in assay [3] (setting [9]), 0.000529 µM; with B16 mouse melanoma cells (setting [10]) it was 0.631 µM; in the assay on C32 human melanoma cells (setting [11]), 0.631 µM.
As for `CCC1(NC(=O)NC(C)(C)c2ccc(-c3ccc(OCCOC)cc3)cc2)CN2CCC1CC2` (stereo not shown) [Example 159, 1-(3-Ethylquinuclidin-3-yl)-3-(2-(4′-(2-methoxyethoxy)-[1,1′-biphenyl]-4-yl)propan-2-yl)urea], the 50% inhibitory concentration (IC50) in assay [1] worked out at 0.0056 µM; in assay [2] (setting [8]) it was 0.00446 µM; in assay [3] (setting [9]), 0.000636 µM; in the assay with B16 mouse melanoma cells (setting [10]), 1 µM; in the assay on C32 human melanoma cells (setting [11]), 1 µM.
Regarding `COCCOc1ccc(-c2ccc(C(C)(C)NC(=O)NC3(C)CCN4CCC3CC4)cc2)cc1` (stereo not shown) [Example 160, 1-(2-(4′-(2-Methoxyethoxy)-[1,1′-biphenyl]-4-yl)propan-2-yl)-3-(4-methyl-1-azabicyclo[3.2.2]nonan-4-yl)urea], the concentration for half-maximal inhibition (IC50) came to 0.00391 µM in assay [1]; 0.0019 µM in assay [2] (setting [8]); 0.000544 µM in assay [3] (setting [9]); 1 µM in the assay with B16 mouse melanoma cells (setting [10]); 1 µM in the assay with C32 human melanoma cells (setting [11]).
As to `COCCOc1ccc(-c2ccc(C(C)(C)NC(=O)N3CCN4CCC3CC4)cc2)cc1` [Example 161, N-(2-(4′-(2-Methoxyethoxy)-[1,1′-biphenyl]-4-yl)propan-2-yl)-1,4-diazabicyclo[3.2.2]nonane-4-carboxamide], the IC50 was found to be 0.25 µM in assay [1]; 0.311 µM in assay [2] (setting [8]); 0.0327 µM in assay [3] (setting [9]); 3.16 µM with B16 mouse melanoma cells (setting [10]); 3.16 µM with C32 human melanoma cells (setting [11]).
Turning to `COCCOc1ccc(-c2ccc(C3(NC(=O)NC4CN5CCC4CC5)CC3)cc2)cc1` (stereo not shown) [Example 162, 1-(1-(4′-(2-Methoxyethoxy)-[1,1′-biphenyl]-4-yl)cyclopropyl)-3-(quinuclidin-3-yl)urea], the IC50 in assay [1] worked out at 0.0281 µM; in assay [2] (setting [8]), 0.0727 µM; in assay [3] (setting [9]), 0.00221 µM; in the assay with B16 mouse melanoma cells (setting [10]), 3.54 µM; in the assay with C32 human melanoma cells (setting [11]) it was 1 µM.
For `COCCOc1ccc(-c2ccc(C3(NC(=O)NC4(C)CN5CCC4CC5)CC3)cc2)cc1` (stereo not shown) [Example 163, 1-(1-(4′-(2-Methoxyethoxy)-[1,1′-biphenyl]-4-yl)cyclopropyl)-3-(3-methylquinuclidin-3-yl)urea], in that order: 0.00849 µM, 0.00657 µM, 0.000539 µM, 1 µM and 0.173 µM.
For `CCC1(NC(=O)NC2(c3ccc(-c4ccc(OCCOC)cc4)cc3)CC2)CN2CCC1CC2` (stereo not shown) [Example 164, 1-(3-Ethylquinuclidin-3-yl)-3-(1-(4′-(2-methoxyethoxy)-[1,1′-biphenyl]-4-yl)cyclopropyl)urea], in that order: 0.00616 µM, 0.00251 µM, 0.000205 µM, 1 µM and 0.173 µM.
As for `COCCOc1ccc(-c2ccc(C3(NC(=O)NC4(C)CCN5CCC4CC5)CC3)cc2)cc1` (stereo not shown) [Example 165, 1-(1-(4′-(2-Methoxyethoxy)-[1,1′-biphenyl]-4-yl)cyclopropyl)-3-(4-methyl-1-azabicyclo[3.2.2]nonan-4-yl)urea], the IC50 in assay [1] turned out to be 0.00415 µM; in assay [2] (setting [8]) it was 0.000516 µM; in assay [3] (setting [9]), 0.00024 µM; in the assay on B16 mouse melanoma cells (setting [10]), 0.316 µM; in the assay with C32 human melanoma cells (setting [11]), 0.0316 µM.
On to `COCCOc1ccc(-c2ccc(C3(NC(=O)OC4CN5CCC4CC5)CC3)cc2)cc1` (stereo not shown) [Example 166, Quinuclidin-3-yl (1-(4′-(2-methoxyethoxy)-[1,1′-biphenyl]-4-yl)cyclopropyl)carbamate], for which the concentration for half-maximal inhibition (IC50) in assay [1] turned out to be 0.00569 µM; in assay [2] (setting [4]), 0.0219 µM; in assay [3] (setting [5]), 0.00181 µM; in the assay with B16 mouse melanoma cells (setting [6]) it was 0.316 µM; in the assay with C32 human melanoma cells (setting [7]) it was 0.215 µM.
In the case of `COCCOc1cccc(-c2ccc(C(C)(C)NC(=O)OC3CN4CCC3CC4)cc2)c1` (stereo not shown) [Example 167, Quinuclidin-3-yl (2-(3′-(2-methoxyethoxy)-[1,1′-biphenyl]-4-yl)propan-2-yl)carbamate], the IC50 in assay [1] was 0.0104 µM; in assay [2] (setting [4]), 0.109 µM; in assay [3] (setting [5]) it was 0.00531 µM; in the assay with B16 mouse melanoma cells (setting [6]) it was at least 10 µM; in the assay with C32 human melanoma cells (setting [7]), 1 µM.
`COCCOc1cccc(-c2ccc(C(C)(C)NC(=O)OC3CCN4CCC3CC4)cc2)c1` (stereo not shown) [Example 168, 1-Azabicyclo[3.2.2]nonan-4-yl (2-(3′-(2-methoxyethoxy)-[1,1′-biphenyl]-4-yl)propan-2-yl)carbamate]: the half-inhibitory concentration (IC50) was 0.00556 µM in assay [1]; 0.0793 µM in assay [2] (setting [8]); 0.00334 µM in assay [3] (setting [9]); at least 10 µM in the assay on B16 mouse melanoma cells (setting [10]); 1 µM in the assay with C32 human melanoma cells (setting [11]).
In the case of `COCCOc1cccc(-c2ccc(C(C)(C)NC(=O)N3CCN4CCC3CC4)cc2)c1` [Example 169, N-(2-(3′-(2-Methoxyethoxy)-[1,1′-biphenyl]-4-yl)propan-2-yl)-1,4-diazabicyclo[3.2.2]nonane-4-carboxamide], the IC50 in assay [1] was 0.257 µM; in assay [2] (setting [8]), 0.283 µM; in assay [3] (setting [9]), 0.018 µM; with B16 mouse melanoma cells (setting [10]), at least 10 µM; in the assay with C32 human melanoma cells (setting [11]), 1 µM.
As to `COCCOc1ccc(-c2cccc(C(C)(C)NC(=O)OC3CN4CCC3CC4)c2)cc1` (stereo not shown) [Example 170, Quinuclidin-3-yl (2-(4′-(2-methoxyethoxy)-[1,1′-biphenyl]-3-yl)propan-2-yl)carbamate], the IC50 was 0.0267 µM in assay [1]; 0.0295 µM in assay [2] (setting [4]); 0.00494 µM in assay [3] (setting [5]); at least 10 µM with B16 mouse melanoma cells (setting [6]); at least 10 µM with C32 human melanoma cells (setting [7]).
`COCCOc1ccc(-c2cccc(C(C)(C)NC(=O)OC3CCN4CCC3CC4)c2)cc1` (stereo not shown) [Example 171, 1-Azabicyclo[3.2.2]nonan-4-yl (2-(4′-(2-methoxyethoxy)-[1,1′-biphenyl]-3-yl)propan-2-yl)carbamate]: the half-inhibitory concentration (IC50) in assay [1] was determined as 0.0325 µM; in assay [2] (setting [8]), 0.0119 µM; in assay [3] (setting [9]), 0.00145 µM; with B16 mouse melanoma cells (setting [10]), 0.0746 µM; in the assay with C32 human melanoma cells (setting [11]) it was 3.98 µM.
Take `COCCCOc1ccc(-c2ccc(C(C)(C)NC(=O)OC3CN4CCC3CC4)cc2)cc1` (stereo not shown) [Example 172, Quinuclidin-3-yl (2-(4′-(3-methoxypropoxy)-[1,1′-biphenyl]-4-yl)propan-2-yl)carbamate]: the IC50 is 0.00241 µM in assay [1]; 0.0666 µM in assay [2] (setting [4]); 0.00156 µM in assay [3] (setting [5]); 8.29 µM in the assay with B16 mouse melanoma cells (setting [6]); at least 10 µM in the assay with C32 human melanoma cells (setting [7]).

In general, IC50 refers to the concentration needed to halve the response being measured.
